Experimental data from PMC7377239, “Cardiovascular Effects of Polychlorinated Biphenyls and Their Major Metabolites” (Environmental Health Perspectives, 2020).
Where two headings read alike, the source gives them in different places.

Key:
HUVECs = test: High-content imaging cytotoxicity in HUVECs, 24 h; assay type: cell-based, human; details: Homo sapiens, HUVEC, 24 h, HUVECs; for viability at 0.01 µM / activity at 0.01 µM / viability at 0.1 µM / activity at 0.1 µM / viability at 1 µM / activity at 1 µM / viability at 10 µM / activity at 10 µM / viability at 100 µM / activity at 100 µM: 0.00 µM = 100.00; for viability at 0.1 µM / activity at 0.1 µM: 0.10 µM; for minimal effective concentration: top concentration 100.00 µM
Protocol: Similar to the cultivation of iCell®-endothelial cells, HUVEC maintenance and experimentation are detailed elsewhere ([Iwata et al. 2017]). Briefly, HUVECs were thawed, seeded, and grown in T75 tissue culture flasks in Medium 199 with EGM™-2 BulletKits™. HUVECs were incubated at regular cell culture conditions, 37°C and 5% CO2 , and passaged every 2–3 d using TrypLE™ Express. To ensure adequate endothelial function, experiments were performed with cells between passages 1 and 5.
(§1) Cytotoxicity was assessed in parallel experiments. For iCell®-endothelial cells, 384-well plates were coated with a 30μg/mL fibronectin solution ( 10μL/well ) and incubated for 2 h at RT. iCell®-endothelial cells were dissociated with TrypLE™ Express and prepared into a solution to achieve 750 cells per well and 50μL of total volume. The fibronectin solution was removed from the 384-well plate, and cells were plated. For HUVECs, similar dissociation and the same cell density were used for plating with the exclusion of the fibronectin solution. Cells were incubated at 37°C and 5% CO2 until a monolayer was formed, typically 3–5 d. 2×PCB plates were created with the requisite maintenance medium. Before treatment, the medium in the wells was exchanged to 25μL/well of fresh maintenance medium. 2×PCB chemical solutions ( […] ) were added. After 24 h incubation at 37°C and 5% CO2 , cells were stained with Hoechst 33342, MitoTracker™ Orange, and calcein AM for 20 min before replacing the staining media with FluoroBright DMEM. Cell culture plates were imaged using the ImageXpress® Micro Confocal high-content imaging system (Molecular Devices). Images were acquired at 10× magnification with DAPI, TRITC, or FITC filter (Hoechst 33342, MitoTracker™, or calcein AM, respectively). The multiwavelength cell scoring applications module in MetaXpress™ (Molecular Devices) was used to analyze the images.
(§2) Phenotypic responses were quantitatively assessed using concentration–response modeling as detailed elsewhere ([Sirenko et al. 2017]). Briefly, phenotypic readouts were normalized to vehicle controls and fit to a four-parameter logistic model in R studio software (version 3.1.1; R Development Core Team). Following EPA guidance on dose–response modeling, a cutoff of one standard deviation across means of vehicle control (i.e., 0.5% vol/vol DMSO in cell culture media) wells was applied to determine the point-of-departure (POD) values ([U.S. EPA 2012]). In the absence of a concentration–response, the highest tested concentration (i.e., 100μM ) was assigned as “no observable adverse effect level.” The concentration–response assessment R script, as well as templates for vehicle and concentration–response data, are available as a supplement to Sirenko et al. ([2017]). The ability of physicochemical properties to predict differences in PODs were evaluated by multiregression and mixed-effects modeling using R.

[1] = system: iCell endothelial cells (human iPSC-derived ECs); test: High-content imaging cytotoxicity in iCell endothelial cells, 24 h; assay type: cell-based; details: Homo sapiens, Endothelial cell, iPSC-EC, 24 hr; for viability at 0.1 µM / activity at 0.1 µM: 0.10 µM; for minimal effective concentration: top concentration 100.00 µM
Protocol: The culture conditions of iCell®-endothelial cells were as reported elsewhere ([Iwata et al. 2017]). Briefly, T75 flasks were coated with a fibronectin solution ( 3 μg/cm^2 ) followed by incubation for 1–2 h. Cells were thawed for 3 min in a 37°C water bath. Thawed cells were added to maintenance medium made of VascuLife VEGF Medium Complete Kit, excluding the supplied FBS, and iCell® Endothelial Cells Medium Supplement. The final formulation of the maintenance medium is detailed in ([Iwata et al. 2017]). The aliquoted fibronectin solution was aspirated from the T75 flasks, and cells were seeded at 1.0×10^4 cells/cm^2 . Cells were maintained at 37°C and 5% CO2 with media changes occurring every 2 d and passaged every 3–4 d using TrypLE™ Express. All experiments were conducted on cells between passages 1 and 5.
as §1, §2

[2] = 24 hr, read-out: huvec.cyto.24hr
[3] = 24 hr, read-out: huvec.mito.24hr
[4] = 24 hr, read-out: huvec.mitoint.24hr
[5] = 24 hr, read-out: huvec.nma.24hr
[6] = 24 hrs, read-out: huvec.tc.24hrs
[7] = 0.00 µM control = 100.00, read-out: endo.cyto.24hr
[8] = 0.00 µM control = 100.00, read-out: endo.mito.24hr
[9] = 0.00 µM control = 100.00, read-out: endo.mitoint.24hr
[10] = 0.00 µM control = 100.00, read-out: endo.nma.24hr
[11] = 0.00 µM control = 100.00, read-out: endo.tc.24hrs

## Oc1ccccc1-c1ccc(Cl)cc1 [2'-OH PCB3]
HUVECs; [2]
  viability at 0.01 µM: 88.2%
  viability at 0.1 µM: 84.3%
  viability at 1 µM: 93%
  viability at 10 µM: 90.2%
  viability at 100 µM: 47.5%
HUVECs; [3]
  activity at 0.01 µM: 87.7%
  activity at 0.1 µM: 84%
  activity at 1 µM: 92.5%
  activity at 10 µM: 88.2%
  activity at 100 µM: 38.4%
HUVECs; [4]
  activity at 0.01 µM: 94.4%
  activity at 0.1 µM: 125%
  activity at 1 µM: 107%
  activity at 10 µM: 104%
  activity at 100 µM: 9.54%
HUVECs; [5]
  activity at 0.01 µM: 93.4%
  activity at 0.1 µM: 97.1%
  activity at 1 µM: 95.6%
  activity at 10 µM: 92.6%
  activity at 100 µM: 65%
HUVECs; 24 hr, read-out: huvec.cyto.24hr POD
  minimal effective concentration: 5.19 µM
HUVECs; 24 hr, read-out: huvec.mito.24hr POD
  minimal effective concentration: 4.06 µM
HUVECs; 24 hr, read-out: huvec.mitoint.24hr POD
  minimal effective concentration: 34.4 µM
HUVECs; 24 hr, read-out: huvec.nma.24hr POD
  minimal effective concentration: 1.6 µM
HUVECs; [6]
  viability at 0.01 µM: 88.2%
  viability at 0.1 µM: 84.3%
  viability at 1 µM: 93.2%
  viability at 10 µM: 90.3%
  viability at 100 µM: 84.1%
HUVECs; 24 hrs, read-out: huvec.tc.24hrs POD
  minimal effective concentration: 5.19 µM
[1]; [7]
  viability at 0.01 µM: 99.2%
  viability at 0.1 µM: 96.5%
  viability at 1 µM: 100%
  viability at 10 µM: 103%
  viability at 100 µM: 57.8%
[1]; [8]
  activity at 0.01 µM: 99.4%
  activity at 0.1 µM: 97%
  activity at 1 µM: 100%
  activity at 10 µM: 103%
  activity at 100 µM: 61.3%
[1]; [9]
  activity at 0.01 µM: 117%
  activity at 0.1 µM: 101%
  activity at 1 µM: 108%
  activity at 10 µM: 124%
  activity at 100 µM: 87.3%
[1]; [10]
  activity at 0.01 µM: 98.3%
  activity at 0.1 µM: 98.8%
  activity at 1 µM: 96.4%
  activity at 10 µM: 97%
  activity at 100 µM: 89.5%
[1]; [11]
  viability at 0.01 µM: 99.2%
  viability at 0.1 µM: 96.5%
  viability at 1 µM: 100%
  viability at 10 µM: 103%
  viability at 100 µM: 87%
[1]; read-out: endo.cyto.24hr POD
  minimal effective concentration: 44.3 µM
[1]; read-out: endo.mito.24hr POD
  minimal effective concentration: 44.3 µM
[1]; read-out: endo.mitoint.24hr POD
  minimal effective concentration: 100 µM
[1]; read-out: endo.nma.24hr POD
  minimal effective concentration: 1.82 µM
[1]; read-out: endo.tc.24hrs POD
  minimal effective concentration: 68.2 µM
